Experimental data: PMC11930087, “Mobility of four structural regions drives isoform-specific properties of photoenzyme LPOR in plants” (The Journal of Biological Chemistry, 2025)
Read-outs that look alike come from different tables or passages of the source.

Legend:
PeaPOR [1] = biological target: T1, PeaPOR (Lathyrus oleraceus, UniProt Q01289); test: biochemical; conditions: 5 uM Pchlide, 15 uM LPOR
T1 construct: gene 3PCR; transit peptide removed; pET15b
T1 sequence (Q01289 65-399): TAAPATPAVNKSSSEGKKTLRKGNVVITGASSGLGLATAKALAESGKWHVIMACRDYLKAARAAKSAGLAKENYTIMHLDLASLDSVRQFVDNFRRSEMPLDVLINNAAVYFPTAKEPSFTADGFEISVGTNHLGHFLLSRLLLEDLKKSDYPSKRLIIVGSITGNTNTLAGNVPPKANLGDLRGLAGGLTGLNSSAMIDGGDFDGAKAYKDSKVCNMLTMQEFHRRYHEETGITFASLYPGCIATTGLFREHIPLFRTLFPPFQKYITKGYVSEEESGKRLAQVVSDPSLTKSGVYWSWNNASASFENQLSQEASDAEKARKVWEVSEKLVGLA
Protocol: (§1) (Figs. 3A, S2). […] The resulting plots resembled saturation curves, to which a hyperbolic function similar to the Michaelis–Menten equation could be fitted (Figs. 3B, S3, Materials and Methods). […] However, KM^L values were consistently lower than KM^D values. […] The addition of 400 μM OPT lipids lowered the KM^D constant for all isoforms, except for SlPOR1, SlPOR3, HaPOR1, HaPOR2, and PeaPOR, where the constant remained unchanged within error estimates. […] Shaded areas represent the SD between replicates. […] A fit of a modified Michaelis–Menten equation is shown, along with the graphical representation of KM^D (B) or KM^L (C). Spectra corresponding to the given F648/F635 values (B) or F Chlide/F Pchlide values (C) are shown on the right side of the plot. D, relationship between KM^D and KM^L for investigated isoforms. The overall distribution of data points is shown in gray. Error bars represent the uncertainty associated with the fitted constant KM^x. Closed symbols represent constants determined for samples not supplemented with lipids, while open symbols these determined in the presence of 400 μM OPT lipids. LPOR, light-dependent protochlorophyllide oxidoreductase; Pchlide, protochlorophyllide; Chlide, chlorophyllide.

TaPOR1 = biological target: T2, TaPOR1 (Triticum aestivum, UniProt Q41578); test: biochemical; conditions: 5 uM Pchlide, 15 uM LPOR
T2 construct: gene PORA
T2 sequence (Q41578 75-388): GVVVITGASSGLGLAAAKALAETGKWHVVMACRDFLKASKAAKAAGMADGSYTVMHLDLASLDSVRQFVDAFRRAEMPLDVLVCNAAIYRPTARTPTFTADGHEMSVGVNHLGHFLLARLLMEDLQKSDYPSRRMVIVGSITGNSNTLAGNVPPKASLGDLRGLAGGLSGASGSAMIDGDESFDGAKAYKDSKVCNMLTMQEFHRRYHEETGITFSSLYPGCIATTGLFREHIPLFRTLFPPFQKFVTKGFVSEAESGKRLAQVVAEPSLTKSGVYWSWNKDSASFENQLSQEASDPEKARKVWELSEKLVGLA
Protocol: as §1

AtPORC = biological target: T3, AtPORC (Arabidopsis thaliana, UniProt O48741); test: biochemical; conditions: 400 uM OPT lipids, 5 uM Pchlide, 15 uM LPOR
T3 construct: gene PORC
T3 sequence (O48741 68-401): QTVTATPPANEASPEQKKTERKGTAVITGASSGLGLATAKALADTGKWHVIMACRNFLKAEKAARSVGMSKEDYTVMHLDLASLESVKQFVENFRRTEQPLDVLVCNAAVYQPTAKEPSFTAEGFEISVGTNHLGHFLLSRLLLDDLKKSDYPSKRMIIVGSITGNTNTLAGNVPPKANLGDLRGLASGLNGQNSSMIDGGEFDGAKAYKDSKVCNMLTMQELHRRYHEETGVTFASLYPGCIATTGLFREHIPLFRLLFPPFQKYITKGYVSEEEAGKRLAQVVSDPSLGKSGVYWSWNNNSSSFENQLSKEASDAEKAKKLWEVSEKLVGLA
Protocol: as §1

PeaPOR [2] = biological target: T1, PeaPOR; test: […] K Pchlide fluorescence in darkness, F648/F635 ratio vs NADPH, hyperbolic fit; type: binding; conditions: lipid-free; 5 μM Pchlide, 15 μM LPOR, pH 7.1, room-temperature dark incubation; apparent parameter, exact value in supplement; read-out: KM^D
SlPOR1 [3] = biological target: T4, SlPOR1 (Solanum lycopersicum, UniProt A0A3Q7HEX8); conditions: 5 uM Pchlide, 15 uM LPOR, binder
T4 construct: gene POR2; transit peptide removed; pET15b
T4 sequence (A0A3Q7HEX8 65-399): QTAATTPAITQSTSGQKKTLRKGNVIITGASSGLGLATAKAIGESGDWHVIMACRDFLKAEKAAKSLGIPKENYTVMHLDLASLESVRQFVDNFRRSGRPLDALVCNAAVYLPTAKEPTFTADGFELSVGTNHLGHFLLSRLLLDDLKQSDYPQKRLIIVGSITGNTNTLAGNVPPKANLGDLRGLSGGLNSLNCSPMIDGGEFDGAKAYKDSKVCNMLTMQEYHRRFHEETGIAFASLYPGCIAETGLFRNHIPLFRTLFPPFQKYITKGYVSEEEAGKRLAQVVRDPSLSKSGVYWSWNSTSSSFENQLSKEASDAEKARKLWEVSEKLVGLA
Protocol: as §1

SlPOR3 = biological target: T5, SlPOR3 (Solanum lycopersicum, UniProt A0A3Q7J565); conditions: 5 uM Pchlide, 15 uM LPOR, binder
T5 construct: gene LOC101248079; transit peptide removed; pET15b
T5 sequence (A0A3Q7J565 63-397): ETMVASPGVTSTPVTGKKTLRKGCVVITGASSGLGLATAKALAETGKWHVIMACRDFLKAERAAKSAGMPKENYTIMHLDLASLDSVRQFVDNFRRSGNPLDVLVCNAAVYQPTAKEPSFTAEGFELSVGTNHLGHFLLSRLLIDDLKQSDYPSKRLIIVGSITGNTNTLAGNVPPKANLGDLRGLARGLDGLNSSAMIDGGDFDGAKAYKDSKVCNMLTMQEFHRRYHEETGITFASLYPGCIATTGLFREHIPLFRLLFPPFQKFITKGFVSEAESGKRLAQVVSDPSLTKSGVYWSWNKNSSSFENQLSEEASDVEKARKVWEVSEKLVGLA
Protocol: as §1

SlPOR1 [4] = biological target: T4, SlPOR1; test: […] K Pchlide fluorescence in darkness, F648/F635 ratio vs NADPH, hyperbolic fit; type: binding; conditions: lipid-free; 5 μM Pchlide, 15 μM LPOR, pH 7.1, room-temperature dark incubation; apparent parameter, exact value in supplement; read-out: KM^D

NC(=O)C1=CN([C@@H]2O[C@H](COP(=O)(O)OP(=O)(O)OC[C@H]3O[C@@H](n4cnc5c(N)ncnc54)[C@H](OP(=O)(O)O)[C@@H]3O)[C@@H](O)[C@H]2O)C=CC1 [NADPH]
apparent Michaelis constant in the dark (KM^D) (PeaPOR [1]; 400 uM OPT lipids): 4.7 µM | Michaelis constant in the dark (KM^D) (PeaPOR [1]; no lipids): 10.8 µM | Km (apparent, dark, KM^D) (TaPOR1; 400 uM OPT lipids): 45.8 µM | apparent Michaelis constant (KM^D) (TaPOR1; no lipids, dark): 394 µM | Michaelis-like constant in the dark (KM^D) (AtPORC): 0.8 µM | Kd (PeaPOR [2]): < 10 µM | apparent Michaelis constant in the dark (KM^D) (SlPOR1 [3]; 400 uM OPT lipids): 7.2 µM | apparent Michaelis constant in the dark (KM^D) (SlPOR1 [3]; no lipids): 8.6 µM | apparent Michaelis constant in dark (KM^D) (SlPOR3; 400 uM OPT lipids): 3 µM | apparent KM (dark, KM^D) (SlPOR3; no lipids): 4.9 µM | Kd (SlPOR1 [4]): < 10 µM
